Source: US11299510B2, “Substituted pyridopyrrolopyrimidine ribonucleosides for therapeutic uses” (USTAV ORGANICKE CHEMIE A BIOCHEMIE AV CR, V.V.I., priority 2018, dated 2022)
pIC50: −log10 of the molar value.

How the values were obtained:
Type in all cases: cell-based
[1] = test system: BJ (normal human fibroblasts); assay: cytotoxic MTS test, BJ; settings: BJ cells
[2] = test system: A549 (human lung adenocarcinoma); assay: cytotoxic MTS test, A549; settings: A549 cells
Text: (§1) To evaluate the antitumor activity of newly prepared compounds for in vitro conditions, we used cytotoxic MTS test (Nosková V. et al., Neoplasma 2002, 49, 418-425) on cell lines derived from normal tissues or tumors. Specifically, cell lines K562 (human acute myeloid leukemia); K562-Tax (human acute myeloid leukemia, paclitaxel resistant subline, overexpress multiple drug resistant protein PgP); CEM (T-lymfoblastic leukemia); CEM-DNR-bulk (T-lymfoblastic leukemia, doxorubicin resistant); A549 (human lung adenocarcinoma); HCT116p53 wt (human colorectal cancer, wild-type); HCT116p53−/−(human colorectal cancer, mutant p53) a U2OS (human bone osteosarcoma) were used. Express characteristics, susceptibility profiles of classic antitumor drugs as well as methodology of cytotoxic MTS test have been repeatedly published (Denizot, F.; Lang, R., J. Immunol. Meth. 1986, 89, 271-277; Noskova, V., see above; Šarek J. et al., J, Med. Chem., 2003, 46, 5402-5415).

[3] = test system: HCT116p53−/− (human colorectal cancer, mutant p53); assay: cytotoxic MTS test, HCT116p53; settings: HCT116p53 cells
Text: as §1

[4] = test system: MRC-5 (normal human fibroblasts); assay: cytotoxic MTS test, MRC-5; settings: MRC5, MRC-5 cells
[5] = test system: CEM-DNR-bulk (T-lymfoblastic leukemia, doxorubicin resistant); assay: cytotoxic MTS test, CEM-DNR; settings: Homo sapiens; CEM-DNR cells
Text: as §1

[6] = test system: HeLa; assay: cytotoxic MTS test, HeLa; settings: Homo sapiens; HeLa cells
[7] = test system: U2OS (human bone osteosarcoma); assay: cytotoxic MTS test, U2OS; settings: U2OS cells
Text: as §1

[8] = test system: HCT116p53 wt (human colorectal cancer, wild-type); assay: cytotoxic MTS test, HCT116; settings: HCT-116, HCT116 cells
Text: as §1

[9] = test system: K562 (human acute myeloid leukemia); assay: cytotoxic MTS test, K562; settings: K562 cells
Text: as §1

[10] = test system: CEM (T-lymfoblastic leukemia); assay: cytotoxic MTS test, CEM; settings: Homo sapiens, CCRF-CEM; CEM cells
Text: as §1

[11] = test system: CCRF-CEM; assay: cytotoxic MTS test, CCRF-CEM; settings: Homo sapiens; CCRF-CEM cells
Text: as §1

[12] = test system: K562-Tax (human acute myeloid leukemia, paclitaxel resistant subline); assay: cytotoxic MTS test, K562-TAX; settings: K562-TAX cells
Text: as §1

[13] = test system: HL 60; assay: cytotoxic MTS test, HL 60; settings: Homo sapiens; HL 60 cells
[14] = test system: Hep G2; assay: cytotoxic MTS test, Hep G2; settings: Homo sapiens, HepG2; Hep G2 cells

Cc1ncnc2c1c1ccncc1n2[C@@H]1O[C@H](CO)[C@@H](O)[C@H]1O [Compound 2d, 4-methyl-9-(β-D-ribofuranosyl)-9H-pyrido[4′,3′:4,5]pyrrolo[2,3-d]pyrimidine]
pIC50 [1]: 5.00 to 6.05 | pIC50 [2]: < 4.30 | pIC50 [3]: 5.00 to 6.05 | pIC50 [4]: < 4.30 | pIC50 [5]: 5.00 to 6.05 | pIC50 [6]: 5.00 to 6.05 | pIC50 [7]: 5.00 to 6.05 | pIC50 [8]: 5.00 to 6.05 | pIC50 [9]: 5.00 to 6.05 | pIC50 [10]: 6.05 to 6.70 | pIC50 [11]: 6.05 to 6.70 | pIC50 [12]: 5.00 to 6.05 | pIC50 [13]: 6.05 to 6.70 | pIC50 [14]: 5.00 to 6.05

CSc1ncnc2c1c1ncccc1n2[C@@H]1O[C@H](CO)[C@@H](O)[C@H]1O [Compound 1b, 4-(methylsulfanyl)-9-(β-D-ribofuranosyl)-9H-pyrido[2′,3′:4,5]pyrrolo[2,3-d]pyrimidine]
pIC50 [1]: < 4.30 | pIC50 [2]: < 4.30 | pIC50 [3]: < 4.30 | pIC50 [4]: < 4.30 | pIC50 [5]: < 4.30 | pIC50 [6]: < 4.30 | pIC50 [7]: < 4.30 | pIC50 [8]: < 4.30 | pIC50 [9]: < 4.30 | pIC50 [10]: < 4.30 | pIC50 [11]: < 4.30 | pIC50 [12]: < 4.30 | pIC50 [13]: < 4.30 | pIC50 [14]: < 4.30

OC[C@H]1O[C@@H](n2c3cccnc3c3c(-c4cc5ccccc5o4)ncnc32)[C@H](O)[C@@H]1O [Compound 1i, 4-(benzofuran-2-yl)-9-(β-D-ribofuranosyl)-9H-pyrido[2′,3′:4,5]pyrrolo[2,3-d]pyrimidine]
pIC50 [1]: < 4.30 | pIC50 [2]: < 4.30 | pIC50 [3]: < 4.30 | pIC50 [4]: < 4.30 | pIC50 [5]: < 4.30 | pIC50 [6]: < 4.30 | pIC50 [7]: < 4.30 | pIC50 [8]: < 4.30 | pIC50 [9]: < 4.30 | pIC50 [10]: < 4.30 | pIC50 [11]: 4.60 to 5.00 | pIC50 [12]: < 4.30 | pIC50 [13]: < 4.30 | pIC50 [14]: < 4.30

OC[C@H]1O[C@@H](n2c3cnccc3c3c(-c4ccoc4)ncnc32)[C@H](O)[C@@H]1O [Compound 2g, 4-(furan-3-yl)-9-(β-D-ribofuranosyl)-9H-pyrido[4′,3′:4,5]pyrrolo[2,3-d]pyrimidine]
pIC50 [1]: < 4.30 | pIC50 [2]: < 4.30 | pIC50 [3]: < 4.30 | pIC50 [4]: < 4.30 | pIC50 [5]: < 4.30 | pIC50 [6]: < 4.30 | pIC50 [7]: < 4.30 | pIC50 [8]: < 4.30 | pIC50 [9]: < 4.30 | pIC50 [10]: < 4.30 | pIC50 [11]: < 4.30 | pIC50 [12]: < 4.30 | pIC50 [13]: < 4.30 | pIC50 [14]: < 4.30
